From patent US20130150325A1, “3-(Fluorovinyl)pyrazoles and their use” (BAYER INTELLECTUAL PROPERTY GMBH, priority 2011, published 2013)

System: HCT 116 cells transfected with a luciferase reporter under the control of an HIF-responsive sequence
Experiment: HIF-luciferase assay
Type: cell-based
Settings: Homo sapiens; HCT 116 HIF-luciferase reporter cells, hypoxia chamber (1% O2), 24 h; in some cases means of up to four individual determinations
In short: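 Stably transfected HCT 116 cells, plated overnight under normoxia, were exposed to test substances (0-10 μmol/l) for 24 h at 1% O2. Luminescence was read 5 min after adding luciferase reagent, with normoxic cells as background controls. IC50 derived from the hypoxia-driven signal.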

Compound	IC50
Cc1cc(/C(F)=C/c2ccc(OC(F)(F)F)c(Cl)c2)nn1Cc1ccnc(N2CCN(C3CC3)CC2)c1 [Example 103, 1-{4-[(3-{(Z)-2-[3-Chloro-4-(trifluoromethoxy)phenyl]-1-fluorovinyl}-5-methyl-1H-pyrazol-1-yl)-methyl]pyridin-2-yl}-4-cyclopropylpiperazine]	2.5 nM
CNc1ccc(Cn2nc(/C(F)=C/c3ccc(C(C)(C)C(F)(F)F)cc3)cc2C)cn1 [Example 83, 5-[(3-{(Z)-1-Fluoro-2-[4-(1,1,1-trifluoro-2-methylpropan-2-yl)phenyl]vinyl}-5-methyl-1H-pyrazol-1-yl)methyl]-N-methylpyridine-2-amine]	0.4 nM
Cc1cc(/C(F)=C/c2ccc(C(C)(C)C)cc2)nn1Cc1cccc(C2(O)CC2)c1 [Example 52, 1-[3-({3-[(Z)-2-(4-tert-Butylphenyl)-1-fluorovinyl]-5-methyl-1H-pyrazol-1-yl}methyl)phenyl]-cyclopropanol]	1 nM
Cc1cc(/C(F)=C/c2ccc(OC(F)(F)F)cc2)nn1Cc1cccc(N2CCC(O)CC2)c1 [Example 12, 1-{3-[(3-{(Z)-1-Fluoro-2-[4-(trifluoromethoxy)phenyl]vinyl}-5-methyl-1H-pyrazol-1-yl)methyl]phenyl}piperidin-4-ol]	0.3 nM
Cc1cc(/C(F)=C/c2ccc(C(F)(F)F)cc2)nn1Cc1cccc(C(=O)N2CCN(C3CC3)CC2)c1 [Example 41, (4-Cyclopropylpiperazin-1-yl) {3-[(3-{(Z)-1-fluoro-2-[4-(trifluoromethyl)phenyl]vinyl}-5-methyl-1H-pyrazol-1-yl)methyl]phenyl}methanone]	3 nM
Cc1ccc(Cn2nc(/C=C(\F)c3ccc(OC(F)(F)F)cc3)cc2C)cc1 [Example 111, 3-{(Z)-2-Fluoro-2-[4-(trifluoromethoxy)phenyl]vinyl}-5-methyl-1-(4-methylbenzyl)-1H-pyrazole]	40 nM
Cc1cc(/C(F)=C/c2ccc(C(C)(C)C(F)(F)F)cc2)nn1Cc1cccc(N2CCC(O)CC2)c1 [Example 13, 1-{3-[(3-{(Z)-1-Fluoro-2-[4-(1,1,1-trifluoro-2-methylpropan-2-yl)phenyl]vinyl}-5-methyl-1H-pyrazol-1-yl)methyl]phenyl}piperidin-4-ol]	0.5 nM
Cc1cc(/C(F)=C/c2ccc(SC(F)(F)F)cc2)nn1Cc1cccc(C(=O)N2CCCC2)c1 [Example 27, [3-({3-[(Z)-1-Fluoro-2-{4-[(trifluoromethyl)sulphanyl]phenyl}vinyl]-5-methyl-1H-pyrazol-1-yl}methyl)phenyl](pyrrolidin-1-yl)methanone]	4 nM
CNc1ccc(Cn2nc(/C(F)=C/c3ccc(CC(C)C)cc3)cc2C)cn1 [Example 90, 5-({3-[(Z)-1-Fluoro-2-(4-isobutylphenyl)vinyl]-5-methyl-1H-pyrazol-1-yl}methyl)-N-methyl-pyridine-2-amine]	2 nM
CNc1ccc(Cn2nc(/C(F)=C/c3ccc(OC(F)(F)F)c(F)c3)cc2C)cn1 [Example 80, 5-[(3-{(Z)-1-Fluoro-2-[3-fluoro-4-(trifluoromethoxy)phenyl]vinyl}-5-methyl-1H-pyrazol-1-yl)-methyl]-N-methylpyridine-2-amine]	2.8 nM
Cc1cc(/C(F)=C/c2ccc(C3(C(F)(F)F)CC3)cc2)nn1Cc1cccc(C(=O)N2CCN(C3CC3)CC2)c1 [Example 40, (4-Cyclopropylpiperazin-1-yl)[3-({3-[(Z)-1-fluoro-2-{4-[1-(trifluoromethyl)cyclopropyl]phenyl}-vinyl]-5-methyl-1H-pyrazol-1-yl}methyl)phenyl]methanone]	2 nM
CNc1ccc(Cn2nc(/C(F)=C/c3ccc(OC(F)(F)F)c(Cl)c3)cc2C)cn1 [Example 81, 5-[(3-{(Z)-2-[3-Chloro-4-(trifluoromethoxy)phenyl]-1-fluorovinyl}-5-methyl-1H-pyrazol-1-yl)-methyl]-N-methylpyridine-2-amine]	3 nM
CNc1ccc(Cn2nc(/C(F)=C/c3ccc(OC(F)(F)F)cc3)cc2C)cn1 [Example 79, 5-[(3-{(Z)-1-Fluoro-2-[4-(trifluoromethoxy)phenyl]vinyl}-5-methyl-1H-pyrazol-1-yl)methyl]-N-methylpyridine-2-amine]	1 nM
Cc1cc(/C(F)=C/c2ccc(OC(F)(F)F)cc2)nn1Cc1cccc(C(=O)N(C)C)c1 [Example 25, 3-[(3-{(Z)-1-Fluoro-2-[4-(trifluoromethoxy)phenyl]vinyl}-5-methyl-1H-pyrazol-1-yl)methyl]-N,N-dimethylbenzamide]	6 nM
Cc1cc(/C(F)=C/c2ccc(C(C)(C)C(F)(F)F)cc2)nn1Cc1cccc(CC(C)(C)O)c1 [Example 64, 1-{3-[(3-{(Z)-1-Fluoro-2-[4-(1,1,1-trifluoro-2-methylpropan-2-yl)phenyl]vinyl}-5-methyl-1H-pyrazol-1-yl)methyl]phenyl}-2-methylpropan-2-ol]	2 nM
Cc1cc(/C(F)=C/c2ccc(OC(F)(F)F)cc2)nn1Cc1cccc(C(C)(C)O)c1 [Example 53, 2-{3-[(3-{(Z)-1-Fluoro-2-[4-(trifluoromethoxy)phenyl]vinyl}-5-methyl-1H-pyrazol-1-yl)methyl]-phenyl}propan-2-ol]	4 nM
CC(=O)OC1(c2cccc(Cn3nc(/C(F)=C/c4ccc(C(C)(C)C(F)(F)F)cc4)cc3C)c2)CC1 [Example 44, 1-{3-[(3-{(Z)-1-Fluoro-2-[4-(1,1,1-trifluoro-2-methylpropan-2-yl)phenyl]vinyl}-5-methyl-1H-pyrazol-1-yl)methyl]phenyl}cyclopropyl acetate]	0.5 nM
Cc1cc(/C(F)=C/c2ccc(C(C)(C)C)cc2)nn1Cc1ccnc(N2CCN(CC(F)(F)F)CC2)c1 [Example 110, 1-[4-({3-[(Z)-2-(4-tert-Butylphenyl)-1-fluorovinyl]-5-methyl-1H-pyrazol-1-yl}methyl)pyridin-2-yl]-4-(2,2,2-trifluoroethyl)piperazine]	1 nM
Cc1cc(/C=C(\F)c2ccc(OC(F)(F)F)cc2)nn1Cc1cccc(C(=O)N2CCCC2)c1 [Example 114, {3-[(3-{(Z)-2-Fluoro-2-[4-(trifluoromethoxy)phenyl]vinyl}-5-methyl-1H-pyrazol-1-yl)methyl]-phenyl}(pyrrolidin-1-yl)methanone]	40 nM
Cc1cc(/C(F)=C/c2ccc(C3(C(F)(F)F)CC3)cc2)nn1Cc1ccnc(N2CCN(C3CC3)CC2)c1 [Example 105, 1-Cyclopropyl-4-[4-({3-[(Z)-1-fluoro-2-{4-[1-(trifluoromethyl)cyclopropyl]phenyl}vinyl]-5-methyl-1H-pyrazol-1-yl}methyl)pyridin-2-yl]piperazine]	0.5 nM
Cc1cc(/C(F)=C/c2ccc(SC(F)(F)F)cc2)nn1Cc1cccc(C(=O)N2CCC(O)CC2)c1 [Example 33, [3-({3-[(Z)-1-Fluoro-2-{4-[(trifluoromethyl)sulphanyl]phenyl}vinyl]-5-methyl-1H-pyrazol-1-yl}-methyl)phenyl](4-hydroxypiperidin-1-yl)methanone]	4 nM
Cc1cc(/C(F)=C/c2ccc(OC(F)(F)F)cc2)nn1Cc1cccc(C(=O)N2CCCC2)c1 [Example 26, {3-[(3-{(Z)-1-Fluoro-2-[4-(trifluoromethoxy)phenyl]vinyl}-5-methyl-1H-pyrazol-1-yl)-methyl]phenyl}(pyrrolidin-1-yl)methanone]	1.5 nM
